In data set [1] the test system is cleaved-PARP in A549 cells. As to the kind of experiment: Flow cytometry of cleaved-PARP, A549. In kind it is cell-based, human. The settings on record: A549, 25 μM Pt(IV)-4C or 7.5 μM Pt(IV)-5C for 5 hours, analyzed 12 hours post treatment. The method, then:
FIG. 12 is a series of histograms indicating Pt(IV)-4C and Pt(IV)-5C-induced cleavage of PARP in A549 cells (top panels) and in DU145 cells (bottom). A549 cells were treated for 5 hours with control (left), 25 μM Pt(IV)-4C (center), or 7.5 μM Pt(IV)-5C (right), and analyzed 12 hours post treatment. DU145 cells were treated for 2 hours with control (left), 10 μM Pt(IV)-4C (center), or 2.5 μM Pt(IV)-5C (right), and analyzed seven hours post treatment. Data are representative of three independent experiments.
Cells (200,000 to 250,000) were seeded in 60 mm dishes and incubated at 37° C. in a humidified, 5% CO2 atmosphere for 2 days to reach ˜50-60% confluence. The cells were treated with the platinum complexes as indicated, the floating cells were collected, and both attached and floating cells were washed 2× with PBS. The cells were resuspended in fresh medium and incubated as indicated. After incubation, both the floating and attached cells were collected and fixed by incubation in 4% formaldehyde for 10 minutes at room temperature. The fixed cells were pelleted and permeabilized by incubation in 500 μL of ice-cold methanol at 4° C. for 10 minutes. The samples were stored at −20° C. until analysis. For analysis, the cells were pelleted and washed 2× with 1% BSA in PBS. […] After washing 2× with 1% BSA, the cells were resuspended in PBS and analyzed on a Becton Dickinson FACS Calibur. […]

Another data set has as its system DU145 cells. As to the kind of experiment: Hoechst/PI staining, confocal microscopy, DU145. In kind it is cell-based, human. The method, then: Cells (100,000 to 125,000) were seeded into 35 mm dishes and incubated for 48 hours at 37° C. The cells were treated with control, Pt(IV)-4C, or Pt(IV)-5C, and while in the dark, the cells were washed 2× with 1 mL PBS. After washing, 1 mL of a 2 μg/mL Hoechst 33342 and 10 μg/mL PI solution (in PBS) was added, and the cells were incubated for 15 minutes at room temperature. Images were acquired within 5 minutes with a Nikon A1R confocal laser scanning microscopy system (CLSM) mounted on a Nikon Eclipse Ti. At least three random areas on each dish were imaged.
Analysis of Hoechst (Ho) and PI staining by confocal microscopy also was performed to detect cell death. PI stains cells with membrane damage, whereas Ho stains both live and apoptotic cells (although apoptotic cells have more intense Ho fluorescence). […] Additionally, unlike A549, the PI positive cells in Pt(IV)-4C treated cells were higher than Pt(IV)-5C treated cells.

Data set [2] can be described thus: Solubility in water and culture medium. In kind it is physicochemical. The conditions noted are these: stock DMSO solution diluted in the culture medium. The method, then: It should be noted that while the solubility of the Pt(IV) complexes in organic solvents were increased compared to their Pt(II) precursors, they were still poorly soluble in water. Thus, Pt(IV)-1C to Pt(IV)-3C were limited to a highest concentration of 100 μM. […] Testing of Pt(IV)4C therefore was limited to 25 μM.

For `CC(=O)[O][Pt]([Cl])([Cl])[O]C(C)=O.CCCCCOc1ccnc(-c2cc(OCCCCC)ccn2)c1` [Pt(IV)-5C, [Pt(IV)Cl2(OAc)2(4,4′-dipentoxy-2,2′-bipyridine)]], the “fold increase of cleaved-PARP” value in data set [1] is ~7 fold. For the same compound, the “Hoechst and PI staining compared to control” value in the data set on DU145 cells is reported as “more PI positive staining than Ho staining”.

As for “[Pt(IV)Cl2(OAc)2(4,4′-dibutoxy-2,2′-bipyridine)] [Pt(IV)-4C]”, the “concentration at which the complex precipitated out of solution” value in data set [2] was ≥ 30 µM. In addition, the “fold increase of cleaved-PARP” value in data set [1] was ~7 fold.

The values are drawn from patent US10316050B2, “PT (IV) complexes containing 4,4′-disubstituted-2,2′-bipyridyl and their use in cancer therapy” (THE BOARD OF REGENTS OF THE NEVADA SYSTEM OF HIGHER …, priority 2014, dated 2019).
